Assays:
[1] = molecular target: T1, mICE (Mus musculus, UniProt P29452); assay: Fluorescence enzyme assay, IC50 determination, ICE; format: biochemical; conditions: recombinant enzyme, substrate Acetyl-Tyr-Val-Ala-Asp-AMC, 30 min preincubation, room temperature
T1 sequence (P29452 123-296 limits assumed): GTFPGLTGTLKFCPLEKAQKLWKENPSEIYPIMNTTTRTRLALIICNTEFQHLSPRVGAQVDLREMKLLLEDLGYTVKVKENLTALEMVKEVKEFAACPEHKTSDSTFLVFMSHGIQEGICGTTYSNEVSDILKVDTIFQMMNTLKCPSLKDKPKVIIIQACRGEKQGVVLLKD
T1 sequence (P29452 315-402 limits assumed): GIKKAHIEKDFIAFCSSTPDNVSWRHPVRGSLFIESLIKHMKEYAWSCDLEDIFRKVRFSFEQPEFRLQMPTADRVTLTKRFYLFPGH
Description: (§1) Fluorescence enzyme assays detecting the activity of the compounds of Formula 1 utilizing the recombinant ICE and CPP32 enzymes were performed essentially according to Thornberry et al. (Nature, 356:768:774 (1992)) and Nicholson et al. (Nature, 376:37-43 (1995)) respectively, (herein incorporated by reference) in 96 well microtiter plates. The substrate is Acetyl-Tyr-Val-Ala-Asp-amino-4-methylcoumarin (AMC) for the ICE assay and Acetyl-Asp-Glu-Val-Asp-amino-4-methylcoumarin for the CPP32, Mch2, Mch3 and Mch5 assays. Enzyme reactions were run in ICE buffer (25 mM HEPES, 1 mM EDTA, 0.1% CHAPS, 10% sucrose, pH 7.5) containing 2 mM DTT at room temperature in duplicate. The assays were performed by mixing the following components:
(§2) 50 μL ICE, Mch2, Mch5, CPP32 (18.8, 38, 8.1 and 0.153 nM concentrations, respectively) or Mch3 (1 unit) enzyme in ICE buffer containing either 8.0 (ICE, Mch2, Mch3, CPP32) or 20 (Mch5) mM DTT;
(§3) 50 μL compound of Formula 1 or ICE buffer (control); and
(§4) 100 μL of 20 μM substrate.
(§5) The enzyme and the compound of Formula 1 to be assayed were allowed to preincubate in the microtitre plate wells for 30 minutes at room temperature prior to the addition of substrate to initiate the reaction. Fluorescent AMC product formation was monitored for one hour at room temperature by measuring the fluorescence emission at 460 nm using an excitation wavelength of 360 nm. The fluorescence change in duplicate (control) wells were averaged and the mean values were plotted as a function of inhibitor concentration to determine the inhibitor concentration producing 50% inhibition (IC50).
(§6) The reference compound for this assay was Cbz-ValAlaAsp-H and the values are denoted in Table 1 as “Reference”.

[2] = molecular target: T2, CPP32 (Homo sapiens, UniProt P42574); assay: Fluorescence enzyme assay, IC50 determination, CPP32; format: biochemical; conditions: recombinant enzyme, substrate Acetyl-Asp-Glu-Val-Asp-AMC, 30 min preincubation, room temperature
T2 sequence (P42574 29-175 limits assumed): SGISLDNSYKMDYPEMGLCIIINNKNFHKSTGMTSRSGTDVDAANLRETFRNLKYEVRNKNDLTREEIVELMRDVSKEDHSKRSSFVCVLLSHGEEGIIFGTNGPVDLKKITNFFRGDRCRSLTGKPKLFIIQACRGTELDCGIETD
T2 sequence (P42574 176-277 limits assumed): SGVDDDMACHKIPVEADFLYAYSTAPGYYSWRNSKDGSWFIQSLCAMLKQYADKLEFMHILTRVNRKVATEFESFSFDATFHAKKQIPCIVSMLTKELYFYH
Description: as §1, §2, §3, §4, §5, §6

[3] = molecular target: T3, MCH-2 (Homo sapiens, UniProt P55212); assay: Fluorescence enzyme assay, IC50 determination, Mch2; format: biochemical; conditions: substrate Acetyl-Asp-Glu-Val-Asp-AMC, 30 min preincubation, room temperature
T3 sequence (P55212 24-179 limits assumed): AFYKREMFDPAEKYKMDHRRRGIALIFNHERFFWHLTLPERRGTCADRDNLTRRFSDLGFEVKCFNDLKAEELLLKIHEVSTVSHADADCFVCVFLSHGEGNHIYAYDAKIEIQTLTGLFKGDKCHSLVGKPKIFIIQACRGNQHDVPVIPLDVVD
T3 sequence (P55212 194-293 limits assumed): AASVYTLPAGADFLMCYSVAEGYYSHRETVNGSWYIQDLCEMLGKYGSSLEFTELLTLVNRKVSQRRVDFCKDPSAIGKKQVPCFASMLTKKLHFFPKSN
Description: as §1, §2, §3, §4, §5, §6

[4] = molecular target: T4, MCH-3 (Homo sapiens, UniProt P55210); assay: Fluorescence enzyme assay, IC50 determination, Mch3; format: biochemical; conditions: substrate Acetyl-Asp-Glu-Val-Asp-AMC, 30 min preincubation, room temperature
T4 sequence (P55210 24-198 limits assumed): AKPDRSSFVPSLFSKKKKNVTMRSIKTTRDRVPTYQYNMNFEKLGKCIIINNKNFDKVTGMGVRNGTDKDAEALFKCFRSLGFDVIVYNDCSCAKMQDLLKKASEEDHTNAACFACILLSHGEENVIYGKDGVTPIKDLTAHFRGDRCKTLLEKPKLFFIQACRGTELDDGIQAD
T4 sequence (P55210 207-303 limits assumed): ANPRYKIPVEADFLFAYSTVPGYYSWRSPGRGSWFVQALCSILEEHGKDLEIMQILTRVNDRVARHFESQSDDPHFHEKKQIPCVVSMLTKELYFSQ
Description: as §1, §2, §3, §4, §5, §6

[5] = molecular target: T5, MCH-5 (Homo sapiens, UniProt Q14790); assay: Fluorescence enzyme assay, IC50 determination, Mch5; format: biochemical; conditions: substrate Acetyl-Asp-Glu-Val-Asp-AMC, 30 min preincubation, room temperature
T5 sequence (Q14790 217-374 limits assumed, species assumed): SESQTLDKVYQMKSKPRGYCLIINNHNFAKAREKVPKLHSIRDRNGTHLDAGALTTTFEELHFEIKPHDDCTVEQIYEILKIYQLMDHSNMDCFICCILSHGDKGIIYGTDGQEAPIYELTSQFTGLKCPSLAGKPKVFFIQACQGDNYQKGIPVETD
T5 sequence (Q14790 385-479 limits assumed, species assumed): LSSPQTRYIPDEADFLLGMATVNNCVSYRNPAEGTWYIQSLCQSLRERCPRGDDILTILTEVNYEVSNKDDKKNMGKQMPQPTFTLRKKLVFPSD
Description: as §1, §2, §3, §4, §5, §6

[6] = molecular target: T1, mICE; assay: Continuous assay for Ki and k3 of irreversible inhibitors, ICE; format: biochemical
From the text: (§7) B. Determination of the dissociation constant Ki and irreversible rate constant k3 for irreversible inhibitors
(§8) For the irreversible inhibition of a ICE/ced-3 Family Protease enzyme with a competitive irreversible inhibitor; using the model represented by the following formulas: [drawing 14]
(§9) The product formation at time t may be expressed as: [formula]
(§10) where E, I, EI and E-I denote the active enzyme, inhibitor, non-covalent enzyme-inhibitor complex and covalent enzyme-inhibitor adduct, respectively. The Ki value is the overall dissociation constant of the reversible binding steps, and k3 is the irreversible rate constant. The [S] and Ks values are the substate concentration and dissociation constant of the substrate bound to the enzyme, respectively. [E]^T is the total enzyme concentration.
(§11) The above equations were used to determine the Ki and k3 values of a given inhibitor bound to a ICE/ced-3 family protease. Thus, a continuous assay was run for sixty minutes at various concentrations of the inhibitor and the substrate. The assay was formulated essentially the same as described above for generating the data in Table 1, except that the reaction was initiated by adding the enzyme to the substrate-inhibitor mixture. […]

[7] = molecular target: T2, CPP32; assay: Continuous assay for Ki and k3 of irreversible inhibitors, CPP32; format: biochemical
From the text: as §7, §8, §9, §10, §11

[8] = molecular target: T3, MCH-2; assay: Continuous assay for Ki and k3 of irreversible inhibitors, Mch2; format: biochemical
From the text: as §7, §8, §9, §10, §11

[9] = molecular target: T5, MCH-5; assay: Continuous assay for Ki and k3 of irreversible inhibitors, Mch5; format: biochemical
From the text: as §7, §8, §9, §10, §11

[10] = continuous assay 60 min, reaction initiated by adding enzyme

Structure (SMILES)	melting point	IC50 [1] [nM]	IC50 [2] [nM]	IC50 [3] [nM]	IC50 [4] [nM]	IC50 [5] [nM]	k3/Ki ([6]; Example 31) [M⁻¹ s⁻¹]	Ki [6, 10] [nM]	k3/Ki ([7]; Example 31) [M⁻¹ s⁻¹]	Ki [7, 10] [nM]	k3/Ki ([8]; Example 31) [M⁻¹ s⁻¹]	Ki [8, 10] [nM]	k3/Ki ([9]; Example 31) [M⁻¹ s⁻¹]	Ki [9, 10] [nM]
CC(C)(C)OC(=O)C[C@@H](/C=N/NC(N)=O)NC(=O)[C@@H]1Cc2cccc3c2N1C(=O)[C@@H](NC(=O)c1cccc2ccccc12)CC3 [Example 20]	103 to 105 °C (dec.)	–	–	–	–	–	–	–	–	–	–	–	–	–
O=C(O)CCC(=O)N[C@H]1CCc2cccc3c2N(C1=O)[C@H](C(=O)N[C@H]1CC(=O)OC1O)C3 (stereo partly drawn) [Example 10]	145 to 160 °C (dec.)	571	245	1810	2830	7980	–	–	–	–	–	–	–	–
O=C(CCc1ccccc1)N[C@H]1CCc2cccc3c2N(C1=O)[C@H](C(=O)N[C@H]1CC(=O)OC1O)C3 (stereo partly drawn) [Example 16]	78 to 81 °C	45	780	> 10000	32600	18700	–	–	–	–	–	–	–	–
O=C1C[C@H](NC(=O)[C@@H]2Cc3cccc4c3N2C(=O)[C@@H](NC(=O)c2cccc3ccccc23)CC4)C(O)O1 (stereo partly drawn) [Example 22]	202 to 203 °C (dec.)	10	2910	> 50000	12300	1090	–	–	–	–	–	–	–	–
O=C1CC(NC(=O)C2CCc3cccc4c3N2C(=O)C(NC(=O)OCc2ccccc2)CC4)C(O)O1 (mixture of isomers) [Example 28, (3R,S-cis)-6-Benzyloxycarbonylamino-5-oxo-2,3,4,5,6,7,8-hexahydro-1H-azepino[3,2,1-hi]quinoline-3-carbonyl)-amino]-4-oxo-butanoic acid]	120 to 123 °C (dec.)	26	437	32000	1110	2060	–	–	–	–	–	–	–	–
O=C(O)C[C@H](NC(=O)[C@@H]1Cc2cccc3c2N1C(=O)[C@@H](NC(=O)OCc1ccccc1)CC3)C(=O)COP(=O)(c1ccccc1)c1ccccc1 [Example 34, 3-[(2S-cis)-[5-Benzyloxycarbonylamino-1,2,3,4,5,6,7-hexahydro-4-oxoazapino[3,2,1-hi]indole-2-carbonyl]amino]5-(diphenylphosphinyl) oxy-4-oxo-pentanoic acid]	109 to 111 °C (dec.)	–	–	–	–	–	–	–	–	–	–	–	–	–
CC(=O)N[C@H]1CCc2cccc3c2N(C1=O)[C@H](C(=O)N[C@H]1CC(=O)OC1O)C3 (stereo partly drawn) [Example 19]	210 to 215 °C (dec.)	3070	3870	> 10000	> 50000	> 50000	–	–	–	–	–	–	–	–
O=C(O)CC(NC(=O)[C@@H]1Cc2cccc3c2N1C(=O)[C@@H](NC(=O)OCc1ccccc1)CC3)C(=O)CF (stereo partly drawn) [Example 31]	–	–	–	–	–	–	1.2e+07	0.5	960000	12	25000	33	98000	22
CC(=O)N[C@@H](CC(=O)O)C(=O)N[C@H]1CCc2cccc3c2N(C1=O)[C@H](C(=O)N[C@H]1CC(=O)OC1O)C3 (stereo partly drawn) [Example 7]	160 to 175 °C (dec.)	694	1.4	6470	145	2090	–	–	–	–	–	–	–	–
O=C1C[C@H](NC(=O)[C@@H]2Cc3cccc4c3N2C(=O)[C@@H](NC(=O)c2ccccc2)CC4)C(O)O1 (stereo partly drawn) [Example 25]	204 to 205 °C (dec.)	159	8770	> 50000	> 50000	4630	–	–	–	–	–	–	–	–
O=C1C[C@H](NC(=O)[C@@H]2Cc3cccc4c3N2C(=O)[C@@H](NC(=O)OCc2ccccc2)CC4)C(O)O1 (stereo partly drawn) [Example 3]	101 to 104 °C	19	1030	40100	6960	> 10000	–	–	–	–	–	–	–	–
O=C(O)C[C@H](NC(=O)OCc1ccccc1)C(=O)N[C@H]1CCc2cccc3c2N(C1=O)[C@H](C(=O)N[C@H]1CC(=O)OC1O)C3 (stereo partly drawn) [Example 13]	140 to 144 °C (dec.)	96	0.52	–	84	1190	–	–	–	–	–	–	–	–

From patent US6444663B1, “Tricyclic compounds for the inhibition of the ICE/ced-3 protease family of enzymes” (Idun Pharmaceuticals, Inc., priority 1996, dated 2002)
